Reference: ChEMBL document CHEMBL1158812, “Monoterpene lactones from the seeds of Nephelium lappaceum” (2005)

What was measured:
Type in all cases: functional
[1] = tested on: Trichophyton mentagrophytes; assay: Antimicrobial activity against Trichophyton mentagrophytes UPCC 4193 at 30 ug by agar well method; details: read-out: IZ
Candida albicans [2] = assay: Antimicrobial activity against Candida albicans UPCC 2168 at 30 ug by agar well method; details: read-out: IZ
Staphylococcus aureus [3] = assay: Antibacterial activity against Staphylococcus aureus UPCC 1143 assessed as activity index at 30 ug by agar well method relative to control
Candida albicans [4] = assay: Antimicrobial activity against Candida albicans UPCC 2168 assessed as activity index at 30 ug by agar well method relative to control
Aspergillus niger [5] = assay: Antimicrobial activity against Aspergillus niger UPCC 4219 assessed as activity index at 30 ug by agar well method relative to control
Bacillus subtilis [6] = assay: Antibacterial activity against Bacillus subtilis UPCC 1295 assessed as activity index at 30 ug by agar well method relative to control
Staphylococcus aureus [7] = assay: Antibacterial activity against Staphylococcus aureus UPCC 1143 at 30 ug by agar well method; details: read-out: IZ
Escherichia coli [8] = assay: Antibacterial activity against Escherichia coli UPCC 1195 assessed as activity index at 30 ug by agar well method relative to control
[9] = tested on: Trichophyton mentagrophytes; assay: Antimicrobial activity against Trichophyton mentagrophytes UPCC 4193 assessed as activity index at 30 ug by agar well method relative to control
Aspergillus niger [10] = assay: Antimicrobial activity against Aspergillus niger UPCC 4219 at 30 ug by agar well method; details: read-out: IZ
Pseudomonas aeruginosa [11] = assay: Antibacterial activity against Pseudomonas aeruginosa UPCC 1244 assessed as activity index at 30 ug by agar well method relative to control
Escherichia coli [12] = assay: Antibacterial activity against Escherichia coli UPCC 1195 at 30 ug by agar well method; details: read-out: IZ
Pseudomonas aeruginosa [13] = assay: Antibacterial activity against Pseudomonas aeruginosa UPCC 1244 at 30 ug by agar well method; details: read-out: IZ
Bacillus subtilis [14] = assay: Antibacterial activity against Bacillus subtilis UPCC 1295 at 30 ug by agar well method; details: read-out: IZ

Row | SMILES | zone of inhibition at 30 µg/disc [1] [mm] | zone of inhibition at 30 µg/disc (Candida albicans [2]) [mm] | Activity_index (Staphylococcus aureus [3]) | Activity_index (Candida albicans [4]) | Activity_index (Aspergillus niger [5]) | Activity_index (Bacillus subtilis [6]) | zone of inhibition at 30 µg/disc (Staphylococcus aureus [7]) [mm] | Activity_index (Escherichia coli [8]) | Activity_index [9] | zone of inhibition at 30 µg/disc (Aspergillus niger [10]) [mm] | Activity_index (Pseudomonas aeruginosa [11]) | zone of inhibition at 30 µg/disc (Escherichia coli [12]) [mm] | zone of inhibition at 30 µg/disc (Pseudomonas aeruginosa [13]) [mm] | zone of inhibition at 30 µg/disc (Bacillus subtilis [14]) [mm]
1 | O=C1C[C@]2(CO1)CO[C@@]1(CO)CC(=O)O[C@@H]21 [LAPPACEOLIDE B] | 13 | 13 | 0.1 | 0.3 | 0.1 | 0 | 11 | 0.1 | 0.3 | 11 | 0.2 | 11 | 12 | –
2 | O=C(N[C@H](CO)[C@H](O)c1ccc([N+](=O)[O-])cc1)C(Cl)Cl [CHLORAMPHENICOL] | – | – | 3.2 | – | – | 2.3 | 25 | 2.8 | – | – | 1.3 | 23 | 14 | 20
3 | O=C1C[C@@]2(CO1)CO[C@@]1(CO)CC(=O)O[C@@H]21 [LAPPACEOLIDE A] | 14 | 13 | 0.1 | 0.3 | 0.2 | 0 | 11 | 0.1 | 0.4 | 12 | 0.2 | 11 | 12 | –
